Data: US9185910B2, “Amide compound” (Sumitomo Chemical Company, Limited, priority 2012, dated 2015)

Tests used:
Musca domestica = test: Test Example 8: filter paper with sucrose bait, Musca domestica; assay type: in vivo; settings: 500 ppm, 0.7 ml on filter paper, female imagoes, after 24 hours
Description: The formulations of Compounds of Present Invention 31, 41, 55, 62, 64 to 65, 67 to 70, 73 to 75, 88, 119, 124 and 131 as obtained in Formulation Example 5 were diluted with water, so as to have a concentration of the active ingredient of 500 ppm, to prepare a test drug solution.
A filter paper having a diameter of 5.5 cm was spread on the bottom of a polyethylene cup having the same diameter and 0.7 ml of the test drug solution was added dropwise onto the filter paper, and 30 mg of sucrose was uniformly placed as bait. Into the polyethylene cup, 10 female imagoes of Musca domestica were released, and the cup was sealed with a lid. After 24 hours, the life and death of Musca domestica was examined, and the death rate was calculated. Death rate (%)=(Number of dead insects/Number of tested insects)×100

[1] = system: Haemaphysalis longicornis; test: Test Example 11: coated screw tube contact test, Haemaphysalis longicornis ticks; assay type: in vivo; settings: 2 mg compound coated on inner wall of screw tube, non-blood-sucking nymphal ticks, after 2 days
Description: 2 mg of each of Compounds of Present Invention 7, 20, 25, 28, 48, 55, 65 and 110 was weighed in a screw tube (Maruemu No. 5; 27×55 mm), and 0.2 mL of acetone was added thereto and sealed with a cap to dissolve the compound. The screw tube was rotated and inverted to uniformity coat the drug solution onto the whole inner wall of the tube. After removing the cap, the solution was air-dried for about 2 hours, then non-blood-sucking nymphal ticks, Haemaphysalis longicornis (5 ticks/group) were released, and the tube was sealed with the cap. After 2 days, the number of dead ticks was examined, and the death rate was calculated according to the following equation: Death rate (%)=100×(Number of dead ticks/Number of tested ticks).

Row | SMILES | Death rate (%) (Musca domestica) | Death rate (%) [1]
1 | CCSc1cccnc1C(=O)N(C)c1ccc(I)cn1 [compound 70] | 100% | 
2 | CCSc1cc(Cl)cnc1C(=O)N(C)c1ccc(C(F)(F)F)cc1 [compound 131] | 100% | 
3 | CCSc1cccnc1C(=O)N(C)c1ccc(C(F)(F)C(F)(F)F)c(Cl)n1 [compound 110] |  | 100%
4 | CCSc1cccnc1C(=O)Nc1ccc(C(F)(F)F)nc1 [compound 20] |  | 100%
5 | CCS(=O)(=O)c1cc(NC(=O)OC)cnc1C(=O)N(C)c1ccc(SC(F)(F)F)cc1 [compound 119] | 100% | 
